In general, zone of inhibition refers to the extent of the growth-free halo in a diffusion test. A high value points to a stronger effect on the plate. A word on the MIC: it is the smallest concentration in the dilution series that meets the test's criterion for growth inhibition. Lower therefore signals a more susceptible organism.

Values after ≈ are worked out from the molar mass of the structure shown.

The values that follow come from PMC6273978, “Synthesis and Pharmacological Evaluation of Novel Pleuromutilin Derivatives with Substituted Benzimidazole Moieties” (Molecules, 2016).

For experiment [1], the system named is MRSA. The experiment in a line: Oxford cup assay, zone of inhibition. Format: cell-based. Conditions: Staphylococcus aureus. As to the method: (§1) The Oxford cup assays were carried out to evaluate the antibacterial activities against the above-mentioned six bacterial strains. The zones of inhibition for two concentrations (320 and 160 μg/mL) of the synthetic compounds and tiamulin fumarate were measured. The results of Oxford cup assay correspond with that obtained by agar dilution method (MICs) as a whole.
(§2) The procedure for Oxford cup assays was the same as that previously reported. Briefly, inoculums were prepared in 0.9% saline using McFarland standard and spread uniformly on nutrient agar plates. The 320 and 160 µg/mL of all the tested compounds were added individually into the Oxford cups that were placed at equal distances above the agar surfaces. The zone of inhibition for each concentration was measured after a 24–36 h incubation at 37 °C. The same procedure was repeated in triplicate.

Experiment [2] has as its system E. coli. The experiment in a line: Oxford cup assay, zone of inhibition. Format: cell-based. The conditions noted are these: Escherichia coli. As to the method:
as §1, §2

Experiment [3] concerns S. aureus. The experiment in a line: Oxford cup assay, zone of inhibition. Format: cell-based. Conditions: Staphylococcus aureus. As for the experimental part: as §1, §2
Experiment [4] relates to S. haemolyticus. The experiment in a line: Oxford cup assay, zone of inhibition. It counts as cell-based. The conditions noted are these: Staphylococcus haemolyticus. As to the method:
as §1, §2

Experiment [5] deals with S. warneri. The experiment in a line: Oxford cup assay, zone of inhibition. It counts as cell-based. Conditions: Staphylococcus warneri. As for the experimental part: as §1, §2
Experiment [6] relates to S. vitulinus. The experiment is described as follows: Oxford cup assay, zone of inhibition. It counts as cell-based, Staphylococcus vitulinus. Conditions: Mammaliicoccus vitulinus. As for the experimental part: as §1, §2
Experiment [7] has as its system Escherichia coli (E. coli). The experiment in a line: MIC testing, agar dilution method. Format: cell-based. The conditions noted are these: 36.5 °C, 24–48 h. The text has this: (§3) The synthesized pleuromutilin derivatives 3 and 4a–l, with tiamulin fumarate used a as reference drug, were screened for their in vitro antibacterial activity against Escherichia coli (E. coli), Staphylococcus aureus (S. aureus), Methicillin-resistant Staphylococcus aureus (MRSA), Staphylococcus vitulinus (S. vitulinus), Staphylococcus warneri (S. warneri), and Staphylococcus haemolyticus (S. haemolyticus). The antibacterial activities are reported in Table 1 as the minimum inhibitory concentration (MIC) using the agar dilution method. The MICs of the 13 new pleuromutilin derivatives in vitro against E. coli ranged from 10 to 80 μg/mL; against S. aureus, MRSA, S. vitulinus, S. warneri, and S. haemolyticus ranged from 0.156 to 40 μg/mL, respectively.
(§4) The MIC for the synthesized compounds (3 and 4a–l) and tiamulin fumarate used as a reference drug were determined using the agar dilution method according to the National Committee for Clinical Laboratory Standards (NCCLS). Tested compounds were dissolved in 25%–40% DMSO to a solution with a concentration of 1280 µg/mL, whereas tiamulin fumarate was directly dissolved in 10 mL of distilled water at the same concentration as the tested compounds. All the solutions were then diluted twofold with sterile water to provide 11 dilutions (final concentration is 0.625 µg/mL). A 2 mL volume of the 2-fold serial dilution of each test compound/drug was incorporated into 18 mL of hot Muellere-Hinton agar medium. Inoculums, including five Gram (+), S. aureus, MRSA, S. vitulinus, S. warneri, S. haemolyticus, and one Gram (−), E. coli were prepared from blood slants and adjusted to approximately 10^5–10^6 CFU/mL with sterile saline (0.90% NaCl). A 10 µL amount of bacterial suspension was spotted onto Muellere-Hinton agar plates containing serial dilutions of the compounds/drug. The plates were incubated at 36.5 °C for 24–48 h. The same procedure was repeated in triplicate.

For experiment [8], the system named is Staphylococcus haemolyticus (S. haemolyticus). The experiment in a line: MIC testing, agar dilution method. It counts as cell-based. Conditions: 36.5 °C, 24–48 h.
Text: as §3, §4
For orientation: In agar dilution the substance is mixed into plates at graded concentrations.

Experiment [9] has as its system Methicillin-resistant Staphylococcus aureus (MRSA). The experiment in a line: MIC testing, agar dilution method. Format: cell-based. Conditions: 36.5 °C, 24–48 h.
Text: as §3, §4

Experiment [10] has as its system Staphylococcus vitulinus (S. vitulinus). The experiment is described as follows: MIC testing, agar dilution method. Format: cell-based. Conditions: Mammaliicoccus vitulinus, 36.5 °C, 24–48 h.
Text: as §3, §4

Experiment [11] relates to Staphylococcus aureus (S. aureus). The experiment is described as follows: MIC testing, agar dilution method. Format: cell-based. Conditions: 36.5 °C, 24–48 h.
Text: as §3, §4

Experiment [12] deals with Staphylococcus warneri (S. warneri). The experiment is described as follows: MIC testing, agar dilution method. It counts as cell-based. The conditions noted are these: 36.5 °C, 24–48 h.
Text: as §3, §4

For the compound `C=C[C@]1(C)C[C@@H](OC(=O)CSc2nc3ccc(NC(=O)c4ccccc4Cl)cc3[nH]2)[C@]2(C)[C@H](C)CC[C@]3(CCC(=O)[C@H]32)[C@@H](C)[C@@H]1O` [Compound 4a, 14-O-((2-Chlorobenzamide-5-aminobenzimidazole-2-yl)thioacetyl) mutilin], the zone of inhibition at 160 µg/mL was 15.9 mm in experiment [1]; 0 mm in experiment [2]; 9.02 mm in experiment [3]; 20.4 mm in [4]; 21.6 mm in experiment [5]; 13.8 mm in experiment [6]. The zone of inhibition at 320 µg/mL in experiment [1] was found to be 20.2 mm; in experiment [2], 11.3 mm; in [3], 12.4 mm; in experiment [4], 24.9 mm; in experiment [5], 22.4 mm; in experiment [6], 19.2 mm. Further, the minimal inhibitory concentration (MIC) in [7] worked out at 40 µg/mL (≈ 60.2 µM); in experiment [8] it was 5 µg/mL (≈ 7.53 µM); in experiment [9], 40 µg/mL (≈ 60.2 µM); in experiment [10], 40 µg/mL (≈ 60.2 µM); in experiment [11], 40 µg/mL (≈ 60.2 µM); in experiment [12], 40 µg/mL (≈ 60.2 µM).
With `C=C[C@]1(C)C[C@@H](OC(=O)CSc2nc3ccc(NC(=O)c4cccc(Cl)c4)cc3[nH]2)[C@]2(C)[C@H](C)CC[C@]3(CCC(=O)[C@H]32)[C@@H](C)[C@@H]1O` [Compound 4b, 14-O-((3-Chlorobenzamide-5-aminobenzimidazole-2-yl)thioacetyl) mutilin], the zone of inhibition at 160 µg/mL in [1] was 17.3 mm; in experiment [2] it was 10.4 mm; in [3], 12.3 mm; in experiment [4], 20.3 mm; in experiment [5] it was 16.5 mm; in [6], 20.5 mm. Moreover, the zone of inhibition at 320 µg/mL in [1] is 21.7 mm; in experiment [2] it was 0 mm; in experiment [3], 15.8 mm; in experiment [4], 20.4 mm; in [5] it was 19.5 mm; in experiment [6], 23.8 mm. Besides, the minimal inhibitory concentration (MIC) in experiment [7] is 80 µg/mL (≈ 120 µM); in experiment [8], 20 µg/mL (≈ 30.1 µM); in [9] it was 20 µg/mL (≈ 30.1 µM); in [10], 10 µg/mL (≈ 15.1 µM); in [11], 40 µg/mL (≈ 60.2 µM); in experiment [12], 20 µg/mL (≈ 30.1 µM).
Regarding `C=C[C@]1(C)C[C@@H](OC(=O)CSc2nc3ccc(NC(=O)c4ccc(Cl)cc4)cc3[nH]2)[C@]2(C)[C@H](C)CC[C@]3(CCC(=O)[C@H]32)[C@@H](C)[C@@H]1O` [Compound 4c, 14-O-((4-Chlorobenzamide-5-aminobenzimidazole-2-yl)thioacetyl) mutilin], the zone of inhibition at 160 µg/mL in [1] amounted to 14.6 mm; in experiment [2], 17.2 mm; in [3], 14.3 mm; in experiment [4], 16.9 mm; in [5], 19.2 mm; in experiment [6], 20.5 mm. The zone of inhibition at 320 µg/mL in experiment [1] stood at 15.5 mm; in experiment [2], 17.7 mm; in [3], 16.5 mm; in experiment [4], 20.9 mm; in experiment [5] it was 22.2 mm; in [6], 21.8 mm. Also, the MIC in experiment [7], in [8], in experiment [9], in experiment [10], in experiment [11] and in [12] was 40 µg/mL (≈ 60.2 µM) throughout.
Consider `C=C[C@]1(C)C[C@@H](OC(=O)CSc2nc3ccc(NC(=O)c4ccccc4C)cc3[nH]2)[C@]2(C)[C@H](C)CC[C@]3(CCC(=O)[C@H]32)[C@@H](C)[C@@H]1O` [Compound 4d, 14-O-((2-Methylbenzamide-5-aminobenzimidazole-2-yl)thioacetyl) mutilin], for which the zone of inhibition at 160 µg/mL turned out to be 16.3 mm in experiment [1]; 0 mm in experiment [2]; 14.7 mm in experiment [3]; 17.4 mm in experiment [4]; 20.6 mm in experiment [5]; 18.2 mm in experiment [6]. Moreover, the zone of inhibition at 320 µg/mL in [1] turned out to be 19.7 mm; in experiment [2] it was 0 mm; in experiment [3] it was 17.8 mm; in experiment [4] it was 18.4 mm; in experiment [5] it was 22.3 mm; in experiment [6] it was 19.1 mm. For the same compound, the minimal inhibitory concentration (MIC) in [7] is 80 µg/mL (≈ 124 µM); in experiment [8], 40 µg/mL (≈ 62.1 µM); in experiment [9], 40 µg/mL (≈ 62.1 µM); in experiment [10], 40 µg/mL (≈ 62.1 µM); in experiment [11], 10 µg/mL (≈ 15.5 µM); in experiment [12] it was 40 µg/mL (≈ 62.1 µM).
As for `C=C[C@]1(C)C[C@@H](OC(=O)CSc2nc3ccc(NC(=O)c4cccc(C)c4)cc3[nH]2)[C@]2(C)[C@H](C)CC[C@]3(CCC(=O)[C@H]32)[C@@H](C)[C@@H]1O` [Compound 4e, 14-O-((3-Methylbenzamide-5-aminobenzimidazole-2-yl)thioacetyl) mutilin], the zone of inhibition at 160 µg/mL in [1] was found to be 25.6 mm; in [2] it was 0 mm; in [3], 17.9 mm; in experiment [4] it was 18.3 mm; in [5], 20.8 mm; in [6], 18.1 mm. Besides, the zone of inhibition at 320 µg/mL amounted to 27.8 mm in experiment [1]; 0 mm in experiment [2]; 19.4 mm in experiment [3]; 20.8 mm in experiment [4]; 21.5 mm in experiment [5]; 20.3 mm in [6]. In addition, the minimum inhibitory concentration (MIC) in experiment [7] turned out to be 80 µg/mL (≈ 124 µM); in experiment [8] it was 40 µg/mL (≈ 62.1 µM); in experiment [9], 40 µg/mL (≈ 62.1 µM); in [10] it was 40 µg/mL (≈ 62.1 µM); in experiment [11] it was 40 µg/mL (≈ 62.1 µM); in experiment [12], 40 µg/mL (≈ 62.1 µM).
On to `C=C[C@]1(C)C[C@@H](OC(=O)CSc2nc3ccc(NC(=O)c4ccc(C)cc4)cc3[nH]2)[C@]2(C)[C@H](C)CC[C@]3(CCC(=O)[C@H]32)[C@@H](C)[C@@H]1O` [Compound 4f, 14-O-((4-Methylbenzamide-5-aminobenzimidazole-2-yl)thioacetyl) mutilin], for which the zone of inhibition at 160 µg/mL in experiment [1] was 14.1 mm; in experiment [2], 0 mm; in experiment [3], 16.7 mm; in experiment [4], 16.2 mm; in [5] it was 22.9 mm; in experiment [6], 14 mm. The zone of inhibition at 320 µg/mL in [1] came to 17.3 mm; in [2], 8.64 mm; in [3] it was 17.8 mm; in experiment [4], 20.7 mm; in experiment [5] it was 22.9 mm; in [6], 15.1 mm. In addition, the minimal inhibitory concentration (MIC) was 80 µg/mL (≈ 124 µM) in experiment [7]; 40 µg/mL (≈ 62.1 µM) in experiment [8]; 40 µg/mL (≈ 62.1 µM) in experiment [9]; 40 µg/mL (≈ 62.1 µM) in experiment [10]; 40 µg/mL (≈ 62.1 µM) in experiment [11]; 20 µg/mL (≈ 31.1 µM) in experiment [12].
